Assays:
MDCK cells = experiment: Extracellular matrix invasion assay, MDCK cells in collagen gels; format: cell-based, canine; details: HGF 10 ng/ml, peptide 100 nM, 5 days
Protocol: MDCK cell invasion into three-dimensional collagen gels was analyzed as previously described. Briefly, type I collagen (1.5 mg/ml; Cohesion Technologies) was mixed with 10×MEM and sodium bicarbonate (11.76 mg/ml) at a ratio of 8:1:1 (vol:vol:vol) on ice, and 0.4 ml aliquots were dispensed into 16-mm tissue culture wells (Nunc), and allowed to gel at 37° C. for 20 min. Cells were seeded onto gels (1×10^4 cells/well) in 0.4 ml of growth medium containing HGF and/or peptides 1 or 4 as indicated. After 5 days, cells were fixed in situ in 2.5% glutaraldehyde in 0.1 M sodium cacodylate buffer (pH 7.4), and cells that had invaded the gel below the surface monolayer in ten randomly selected fields (1×1.4 mm) were counted microscopically using a 20× phase contrast objective. Depth of cellular invasion into the collagen gel was quantitated in the same ten fields per treatment group using a calibrated fine focusing micrometer. Values were compared using the Student's unpaired t-test and a significant value was taken as P<0.001. Results in Table 1 are shown as the mean number of invading cells/field or mean invasion depth/cell in microns+standard error of the mean.
MDCK cells were left untreated (Control), treated with HGF (10 ng/ml), or HGF+peptide 2 or 4 (100 nM), and invasion into collagen matrices was quantitated microscopically as described above. Values are the mean of at least 10 randomly selected fields±standard error of the mean. Epithelial Tube Formation Assay

TAC-2 cells = experiment: Epithelial tube formation assay, TAC-2 cells in collagen gels; format: cell-based
Protocol: TAC-2 cells were suspended in three-dimensional collagen gels at 1×10^4 cells/ml in collagen and incubated in complete medium containing HGF and/or Grb2 inhibitors as indicated. After 3 days, the cultures were fixed with 2.5% glutaraldehyde in 0.1 M cacodylate buffer, and at least 3 randomly selected fields per experimental condition in each of 3 separate experiments were digitally recorded with brightfield microscopy. The total length of the cords in each individual colony present in each optical field was measured with IPLab. Cord length was considered as “0” in: a) colonies with a spheroidal shape, and b) slightly elongated structures in which the length to diameter ratio was less than 2. The mean values for each experimental condition were compared to controls using the Student's unpaired t-test. Results in FIG. 5 are described as mean total cord length (in μm) per field.

HUVE cells [1] = experiment: HUVE cell proliferation; format: cell-based, human
Protocol: HUVE or HMVE cells were seeded per triplicate in type I collagen-coated 48-well plates (Biocoat) (3000 cells/well) in […] of complete EGM-Bullet Kit medium (BioWhittaker, Walkersville, Md.), allowed to attach for 4 hr and incubated overnight with or without the indicated concentrations of peptide 2. The cultures were rinsed twice in serum-free medium and incubated with EBM medium (BioWhittaker) supplemented with 50 μg/ml heparin, 50 μg/ml ascorbic acid and 10% FCS. After either 4 days (HUVE) or 5 days (HMVE), cells were harvested with trypsin/EDTA and counted with an hemocytometer. The mean number of cells per ml was calculated from 3 independent measures for each of triplicate wells per experimental condition and compared to controls using the Student's unpaired t-test. Results set forth in FIG. 12 are described as the ratio of growth factor-treated to control proliferating cells designated on the y-axis as “Proliferation (Fold Increase)”.

HUVE cells [2] = experiment: HUVE cell migration, modified Boyden chamber; format: cell-based, human
Protocol: (§1) The migration assay of HUVE and HMEC-1 cells in modified Boyden chambers was adapted from previously described procedures (Murohara et al., Thromb. Vasc. Biol., 19: 1156-61 (1999), Malinda et al., FASEB J., 13: 53-62 (1999)). In brief, Biocoat Cell Environment control inserts (8 micron pore size; Becton Dickinson) were coated with 0.1% gelatin (Sigma) for at least 1 hour at 37° C. and air dried. Lower chambers contained 0.7 ml RPMI+0.1% BSA, to which 20 ng/ml HGF and/or 300 nM Grb2 inhibitors were added. Cells were pre-treated with the indicated concentrations of Grb2 inhibitors for 18-24 hours, trypsinized, washed twice in RPMI+0.1% BSA, added to upper chambers (5×10^4 cells/well) with or without inhibitors in a final volume of 0.5 ml, and incubated for 4 h at 37° C. Cells on the upper surface of each filter were removed with a cotton swab, while cells that had traversed to the bottom surface of the filter were fixed and stained using Diff-Quik (Dade Diagnostics) and counted using a 10× objective. Mean values from 4 randomly selected fields (1×1.4 mm) were calculated for each of triplicate wells per experimental condition. Shown in FIG. 6 is the ratio of growth factor-treated to control migrating cells designated on the y-axis as “Migration (Fold Increase)” or as the mean number of cells per optical field in FIGS. 8-11.

NIH 3T3 fibroblasts = experiment: NIH 3T3 fibroblast migration, modified Boyden chamber; format: cell-based
Protocol: as §1
PDGF is implicated in different biological processes such vascular remodeling, wound healing and cancer (for reviews, see Bornfeldt et al., Ann N Y Acad. Sci., 766:416-30, 1995; Gendron, Surv. Ophthalmol., 44:184-5, 1999). Addition of 50 ng/ml PDGF-BB to NIH 3T3 fibroblasts incubated in a modified Boyden chamber results in a dramatic, 20-fold increase in cell migration. […] This observation opens a potential therapeutical use of the Grb2 inhibitor compounds in the treatment of diseases such as cancer, wound healing disorders, vascular complications of diabetes mellitus, vascular nephropathies, and diseases with occurrence of fibrosis.

Compound: NC(=O)C[C@H](NC(=O)C1(NC(=O)[C@H](Cc2ccc(C(C(=O)O)C(=O)O)cc2)NC(=O)C(=O)O)CCCCC1)C(=O)NCCCc1cccc2ccccc12 [peptide 2, (N-oxalyl-4-malonyl)-Phe-Ac6c-Asn-NH-(3-naphthalen-1-yl-propyl)]
- Mean Invading Cells/Field (MDCK cells): 12.6 ± 1.9
- Mean Invasion Depth/Cell (MDCK cells): 17.9 ± 1.9 μm
- HGF-induced elongation of epithelial tubes (cord length) (TAC-2 cells; HGF 20 ng/ml, 3 days): significantly (p<0.0001) abrogate
- concentration at which a sub-maximal inhibitory effect is already observed (TAC-2 cells; HGF-induced tube elongation): 30 nM
- HGF- VEGF-induced HUVE cell proliferation (HUVE cells [1]; peptide 30 nM): failed to significantly (p=0.05) inhibit
- bFGF-dependent HUVE cell proliferation (HUVE cells [1]; peptide 30 nM, p<0.0001): inhibited
- serum-dependent HUVE cell proliferation (HUVE cells [1]; peptide 30 nM, p<0.001): inhibited
- HGF- VEGF-induced HUVE cell proliferation (cell counts) (HUVE cells [1]; peptide 300 nM): significant (p<0.0001) reduction in cell counts
- VEGF-induced cell migration (HUVE cells [2]; VEGF): significantly (p<0.001) reverted
- PMA-induced cell migration (HUVE cells [2]; peptide 300 nM, PMA 40 ng/ml): dramatically reverted to basal levels
- PDGF-BB-induced NIH 3T3 cell migration (NIH 3T3 fibroblasts; co-added with PDGF-BB 50 ng/ml): inhibits NIH 3T3 cell migration in a significant (p<0.001), dose-dependent manner
- reduction in the mean number of cells per field (NIH 3T3 fibroblasts; peptide 30 nM, PDGF-BB 50 ng/ml): 60%

Reference: US7871981B2, “Inhibition of cell motility, angiogenesis, and metastasis” (The United States of America as represented by the …, priority 1999, dated 2011)
